Reference: ChEMBL document CHEMBL5356947, “Mitochondria-targeted biotin-conjugated BODIPYs for cancer imaging and therapy” (RSC Med Chem, 2023)
Values belong to the compound of their own block, whether it stands above or below them.

How the values were obtained:
MDA-MB-231 [1] = test: Cell cycle arrest in human MDA-MB-231 cells assessed as accumulation of cells at G2/M phase at 60 nM preincubated with compound for 15 mins followed by light irradiation and measured after 3 to 24 hrs by RNase A/PI staining based flow cytometric analysis (reference value: 12.9%); type: functional; conditions: time 195-1455 min
[2] = Absorption property of the compound assessed as triplet quantum yield by UV-vis spectrophotometer; type: physicochemical
MDA-MB-231 [3] = test: Induction of apoptosis in human MDA-MB-231 cells assessed as late apoptotic cells at 30 nM incubated for 24 hrs under dark condition by Annexin V-FITC/PI staining based flow cytometric analysis relative to control; type: functional
[4] = Absorption property of the compound assessed as molar extinction co-effecient by UV-vis spectrophotometer; type: physicochemical
MDA-MB-231 [5] = test: Cell cycle arrest in human MDA-MB-231 cells assessed as accumulation of cells at G1 phase incubated for 24 hrs by RNase A/PI staining based flow cytometric analysis relative to control; type: functional
[6] = Emission property of the compound by fluorescence spectrophotometer analysis; type: physicochemical
MDA-MB-231 [7] = test: Photocytotoxicity against human MDA-MB-231 cells assessed as inhibition of cell growth incubated for 24 hrs by MTT assay; type: functional, cell-based; conditions: MDA-MB-231, 24 h
MDA-MB-231 [8] = test: Induction of apoptosis in human MDA-MB-231 cells assessed as late apoptotic cells at 30 nM preincubated with compound for 24 hrs followed by 540 nm light irradiation for 1 hrs by Annexin V-FITC/PI staining based flow cytometric analysis (reference value: 17.1%); type: functional; conditions: time 25 hrs
MDA-MB-231 [9] = test: Cell cycle arrest in human MDA-MB-231 cells assessed as accumulation of cells at G1 phase at 30 nM preincubated with compound for 15 mins followed by light irradiation and measured after 3 to 24 hrs by RNase A/PI staining based flow cytometric analysis (reference value: 65.7%); type: functional; conditions: time 195-1455 min
[10] = Absorption property of the compound assessed as decay lifetime; type: physicochemical
MDA-MB-231 [11] = test: Induction of apoptosis in human MDA-MB-231 cells assessed as late apoptotic cells at 60 nM preincubated with compound for 24 hrs followed by 540 nm light irradiation for 1 hrs by Annexin V-FITC/PI staining based flow cytometric analysis (reference value: 17.1%); type: functional; conditions: time 25 hrs
MDA-MB-231 [12] = test: Cell cycle arrest in human MDA-MB-231 cells assessed as accumulation of cells at G2/M phase at 30 nM preincubated with compound for 15 mins followed by light irradiation and measured after 3 to 24 hrs by RNase A/PI staining based flow cytometric analysis (reference value: 12.9%); type: functional; conditions: time 195-1455 min
MDA-MB-231 [13] = test: Induction of oxidative stress on human MDA-MB-231 cells assessed as increase in ROS population at 60 nM preincubated with compound for 24 hrs followed by 540 nm light irradiation for 1 hrs by CM-H2DCFDA staining based analysis (reference value: 2.5%); type: functional; conditions: time 25 hrs
HCT-116 = test: Photocytotoxicity against human HCT-116 cells assessed as inhibition of cell growth incubated for 24 hrs by MTT assay; type: functional, cell-based; conditions: HCT-116, 24 h
MDA-MB-231 [14] = test: Cell cycle arrest in human MDA-MB-231 cells assessed as accumulation of cells at S phase incubated for 24 hrs by RNase A/PI staining based flow cytometric analysis relative to control; type: functional
MDA-MB-231 [15] = test: Cell cycle arrest in human MDA-MB-231 cells assessed as accumulation of cells at G2/M phase incubated for 24 hrs by RNase A/PI staining based flow cytometric analysis relative to control; type: functional
HT-29 = test: Photocytotoxicity against human HT-29 cells assessed as inhibition of cell growth incubated for 24 hrs by MTT assay; type: functional, cell-based; conditions: HT-29, 24 h
MDA-MB-231 [16] = test: Induction of apoptosis in human MDA-MB-231 cells assessed as early apoptotic cells at 30 nM preincubated with compound for 24 hrs followed by 540 nm light irradiation for 1 hrs by Annexin V-FITC/PI staining based flow cytometric analysis (reference value: 19.2%); type: functional; conditions: time 25 hrs
[17] = Absorption property of the compound by UV-vis spectrophotometer; type: physicochemical
[18] = Fluorescence property of the compound assessed as fluorescence quantum yield in EtOH; type: physicochemical
MDA-MB-231 [19] = test: Induction of oxidative stress on human MDA-MB-231 cells assessed as increase in ROS population incubated for 24 hrs under dark condition by CM-H2DCFDA staining based analysis relative to control; type: functional
[20] = Photosensitizing ability of the compound in MeOH assessed as singlet oxygen generation at 408 nm measured upto 120 sec by DPBF based assay; type: functional
MDA-MB-231 [21] = test: Cell cycle arrest in human MDA-MB-231 cells assessed as accumulation of cells at S phase at 30 nM preincubated with compound for 15 mins followed by light irradiation and measured after 3 to 24 hrs by RNase A/PI staining based flow cytometric analysis (reference value: 16.4%); type: functional; conditions: time 195-1455 min
MDA-MB-231 [22] = test: Cell cycle arrest in human MDA-MB-231 cells assessed as accumulation of cells at G1 phase at 60 nM preincubated with compound for 15 mins followed by light irradiation and measured after 3 to 24 hrs by RNase A/PI staining based flow cytometric analysis (reference value: 65.7%); type: functional; conditions: time 195-1455 min
MCF7 = test: Photocytotoxicity against human MCF7 cells assessed as inhibition of cell growth incubated for 24 hrs by MTT assay; type: functional, cell-based; conditions: MCF7, 24 h
MDA-MB-231 [23] = test: Induction of apoptosis in human MDA-MB-231 cells assessed as early apoptotic cells at 60 nM preincubated with compound for 24 hrs followed by 540 nm light irradiation for 1 hrs by Annexin V-FITC/PI staining based flow cytometric analysis (reference value: 19.2%); type: functional; conditions: time 25 hrs
MDA-MB-231 [24] = test: Cell cycle arrest in human MDA-MB-231 cells assessed as accumulation of cells at S phase at 60 nM preincubated with compound for 15 mins followed by light irradiation and measured after 3 to 24 hrs by RNase A/PI staining based flow cytometric analysis (reference value: 16.4%); type: functional; conditions: time 195-1455 min
[25] = Photocytotoxicity against human MCF-10A cells assessed as inhibition of cell growth incubated for 24 hrs by MTT assay; type: toxicity, cell-based
MDA-MB-231 [26] = test: Induction of apoptosis in human MDA-MB-231 cells assessed as early apoptotic cells at 30 nM incubated for 24 hrs under dark condition by Annexin V-FITC/PI staining based flow cytometric analysis relative to control; type: functional
MDA-MB-231 [27] = test: Induction of apoptosis in human MDA-MB-231 cells assessed as necrotic cells at 60 nM preincubated with compound for 24 hrs followed by 540 nm light irradiation for 1 hrs by Annexin V-FITC/PI staining based flow cytometric analysis (reference value: 2.7%); type: functional; conditions: time 25 hrs
MDA-MB-231 [28] = test: Induction of apoptosis in human MDA-MB-231 cells assessed as necrotic cells at 30 nM preincubated with compound for 24 hrs followed by 540 nm light irradiation for 1 hrs by Annexin V-FITC/PI staining based flow cytometric analysis (reference value: 2.7%); type: functional; conditions: time 25 hrs
[29] = Drug localization in mitochondria of human MDA-MB-231 cells incubated for 1 hrs by Mitotracker deep red/Hoechst staining based confocal microscopic analysis; type: ADME; conditions: mda-mb-231, 1 h
MDA-MB-231 [30] = test: Induction of oxidative stress on human MDA-MB-231 cells assessed as increase in ROS population at 30 nM preincubated with compound for 24 hrs followed by 540 nm light irradiation for 1 hrs by CM-H2DCFDA staining based analysis (reference value: 2.5%); type: functional; conditions: time 25 hrs
MDA-MB-231 [31] = test: Induction of apoptosis in human MDA-MB-231 cells assessed as necrotic cells at 30 nM incubated for 24 hrs under dark condition by Annexin V-FITC/PI staining based flow cytometric analysis relative to control; type: functional

Activity [2]: 0.44
Activity [4]: 91000 M⁻¹ cm⁻¹
Activity [6]: 549 nm
Time [10]: 2.5 microsec
Activity [17]: 533 nm
Activity [18]: 0.039
Drug uptake [29]: Active
SMILES: CC1=C(I)C(C)=[N+]2C1=C(c1ccc(OCc3cn(CCOCCOCCOCCOCCNC(=O)CCCCC4SCC5NC(=O)NC54)nn3)cc1)c1c(C)c(I)c(C)n1[B-]2(F)F (stereo unspecified)
Activity (MDA-MB-231 [1]): 22%
Activity (MDA-MB-231 [3]): 11.5%
Activity (MDA-MB-231 [5]): 63.3%
IC50 (MDA-MB-231 [7]): 52.2 nM
Activity (MDA-MB-231 [8]): 11.2%
Activity (MDA-MB-231 [9]): 63%
Activity (MDA-MB-231 [11]): 34.1%
Activity (MDA-MB-231 [12]): 19.2%
Activity (MDA-MB-231 [13]): 92.4%
IC50 (HCT-116): 74.9 nM
Activity (MDA-MB-231 [14]): 18.1%
Activity (MDA-MB-231 [15]): 13.3%
IC50 (HT-29): 88.2 nM
Activity (MDA-MB-231 [16]): 10.5%
Activity (MDA-MB-231 [19]): 5.9%
Activity [20]: 0.34
Activity (MDA-MB-231 [21]): 14.6%
Activity (MDA-MB-231 [22]): 58.7%
IC50 (MCF7): 54.1 nM
Activity (MDA-MB-231 [23]): 4.5%
Activity (MDA-MB-231 [24]): 15.5%
IC50 at 24 h [25]: 177 nM
Activity (MDA-MB-231 [26]): 5.6%
Activity (MDA-MB-231 [27]): 40.1%
Activity (MDA-MB-231 [28]): 12.1%
Activity (MDA-MB-231 [30]): 92.3%
Activity (MDA-MB-231 [31]): 5.8%

Activity [18]: 0.95
SMILES: CC/N=c1/cc2oc3cc(NCC)c(C)cc3c(-c3ccccc3C(=O)OCC)c-2cc1C.Cl

SMILES: C#CCOc1ccc(C2=C3C(C)=C(I)C(C)=[N+]3[B-](F)(F)n3c(C)c(I)c(C)c32)cc1
IC50 (MDA-MB-231 [7]): 25.2 nM
